Test results published in the NIST ThermoML archive (doi:10.1016/j.fluid.2017.09.007).
± gives the expanded uncertainty stated by the source.

Columns and labels:
[1] = Crystal; DTA
[2] = Molar enthalpy of transition or fusion; details: Crystal; DSC

With `C[C@]12CCC(=O)C=C1CC[C@@H]1[C@@H]2[C@@H](O)C[C@@]2(C)[C@H]1CC[C@]2(O)C(=O)CO` [11β,17α,21-trihydroxypregn-4-ene-3,20-dione] the Normal melting temperature [1] was 221.60 ± 1.1 °C and the “Molar enthalpy of transition or fusion” value [2] was 9.15 ± 0.311 kcal/mol.
